In BindingDB's records for PubMed 36126447 (Acharya & Bm Reddy College of Pharmacy, 2022) one finds IC50 data, which are given here for 1 molecule.

In the test the target is Programmed cell death 1 ligand 1 (Homo sapiens) (UniProt Q9NZQ7). The experiment in a line: Inhibition of human PD-1/PDL1 protein-protein interaction by luminescence proximity homogeneous assay.
Sequence of Programmed cell death 1 ligand 1 (Homo sapiens) (Q9NZQ7 whole entry, looked up): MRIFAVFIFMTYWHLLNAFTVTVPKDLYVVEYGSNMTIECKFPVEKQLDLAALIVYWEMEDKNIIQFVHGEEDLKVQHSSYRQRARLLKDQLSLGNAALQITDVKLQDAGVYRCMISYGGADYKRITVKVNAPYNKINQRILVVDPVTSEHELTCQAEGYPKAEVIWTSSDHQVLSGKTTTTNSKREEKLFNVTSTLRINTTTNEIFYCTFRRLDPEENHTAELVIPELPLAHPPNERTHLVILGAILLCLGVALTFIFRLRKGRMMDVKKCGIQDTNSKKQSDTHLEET

As a reminder, the IC50 is the concentration that inhibits the measured activity by half. A lower IC50 goes with inhibition by little substance. On to `Cc1c(COc2ccc(C[C@H](N)C(=O)O)cc2Br)cccc1-c1ccccc1`, for which half-maximal inhibition (IC50) required 1.5 µM.
